Assay results as given in patent US9738932B2, “Biomarkers for cardiovascular side-effects induced by cox-2 inhibitory compounds” (FIRALIS SAS, priority 2005, dated 2017).

Tested on: mRNA expression in cardiovascular tissues
Test: Affymetrix GeneChip mRNA expression profiling of monkey tissues (iliac vein, pulmonary vein, aorta, carotid artery, heart) after two-week oral-gavage treatment
[1] = iliac vein, Vioxx animal A60055

## CS(=O)(=O)c1ccc(C2=C(c3ccccc3)C(=O)OC2)cc1 [Vioxx®, rofecoxib]
16 tissues, ANOVA p<0.05, 50 mg/kg/day, two weeks
  expression of MHC class I classical and non-classical molecules, MHC class II molecules and their receptors: significant increases
[1]
  ACE (209749_s_at) mRNA expression, fold change vs control: 1.3 fold
  B2M (216231_s_at) mRNA expression, fold change vs control: 1.4 fold
  BCL6 (215990_s_at) mRNA expression, fold change vs control: 1.3 fold
  BTN2A2 (205298_s_at) mRNA expression, fold change vs control: 1.4 fold
  CCR1 (205098_at) mRNA expression, fold change vs control: 1.4 fold
  CD2 (205831_at) mRNA expression, fold change vs control: 1.4 fold
  CD48 (204118_at) mRNA expression, fold change vs control: 1.5 fold
  CD53 (203416_at) mRNA expression, fold change vs control: 1.5 fold
  CDC2 (210559_s_at) mRNA expression, fold change vs control: 1.5 fold
  CYBB (203922_s_at) mRNA expression, fold change vs control: 1.4 fold
  EMP3 (203729_at) mRNA expression, fold change vs control: 1.4 fold
  FCER1G (204232_at) mRNA expression, fold change vs control: 1.4 fold
  FCGR2A (203561_at) mRNA expression, fold change vs control: 1.5 fold
  FCGRT (218831_s_at) mRNA expression, fold change vs control: 1.4 fold
  FKBP11 (219117_s_at) mRNA expression, fold change vs control: 1.4 fold
  FKBP11 (219118_at) mRNA expression, fold change vs control: 1.5 fold
  GP6 (220336_s_at) mRNA expression, fold change vs control: 1.4 fold
  HCLS1 (202957_at) mRNA expression, fold change vs control: 1.3 fold
  HEM1 (209734_at) mRNA expression, fold change vs control: 1.5 fold
  HLA-A (210514_x_at) mRNA expression, fold change vs control: 1.3 fold
  HLA-A (213932_x_at) mRNA expression, fold change vs control: 1.5 fold
  HLA-C (211799_x_at) mRNA expression, fold change vs control: 1.4 fold
  HLA-E (200904_at) mRNA expression, fold change vs control: 1.4 fold
  HLA-F (221978_at) mRNA expression, fold change vs control: 1.3 fold
  ICAM1 (202637_s_at) mRNA expression, fold change vs control: 1.3 fold
  IL13RA1 (210904_s_at) mRNA expression, fold change vs control: 1.2 fold
  PIK3CD (203879_at) mRNA expression, fold change vs control: 1.2 fold
  PRKCBP1 (209048_s_at) mRNA expression, fold change vs control: 1.3 fold
  PRKCBP1 (209049_s_at) mRNA expression, fold change vs control: 1.5 fold
  PTPN7 (204852_s_at) mRNA expression, fold change vs control: 1.4 fold
  SIGIRR (52940_at) mRNA expression, fold change vs control: 1.2 fold
  STAT1 (200887_s_at) mRNA expression, fold change vs control: 1.5 fold
  STAT1 (AFFX-HUMISGF3A/M97935_3_at) mRNA expression, fold change vs control: 1.4 fold
  STAT3 (208992_s_at) mRNA expression, fold change vs control: 1.5 fold
  TCIRG1 (204158_s_at) mRNA expression, fold change vs control: 1.2 fold
  THY1 (213869_x_at) mRNA expression, fold change vs control: 1.3 fold
  TMPO (209753_s_at) mRNA expression, fold change vs control: 1.5 fold
  TMSB10 (217733_s_at) mRNA expression, fold change vs control: 1.4 fold
  TNFRSF21 (218856_at) mRNA expression, fold change vs control: 1.5 fold
  TRB@ (210915_x_at) mRNA expression, fold change vs control: 1.3 fold
  TRB@ (213193_x_at) mRNA expression, fold change vs control: 1.5 fold
Iliac vein, animal A60055
  209813_x_at fold change vs control: 2.4 fold
  AIF1 (209901_x_at) fold change vs control: 3.0 fold
  AIF1 (213095_x_at) fold change vs control: 3.2 fold
  B2M (201891_s_at) fold change vs control: 3.0 fold
  BCL3 (204908_s_at) fold change vs control: 1.7 fold
  BTN3A1 (207485_x_at) fold change vs control: 4.0 fold
  BTN3A3 (38241_at) fold change vs control: 2.3 fold
  BTN3A3 (204820_s_at) fold change vs control: 4.1 fold
  BTN3A3 (204821_at) fold change vs control: 3.3 fold
  C1QA (218232_at) fold change vs control: 1.7 fold
  C1QB (202953_at) fold change vs control: 1.8 fold
  C1R (212067_s_at) fold change vs control: 2.0 fold
  C1S (208747_s_at) fold change vs control: 3.6 fold
  C2 (203052_at) fold change vs control: 3.3 fold
  C4A (208451_s_at) fold change vs control: 3.8 fold
  CASP1 (209970_x_at) fold change vs control: 2.3 fold
  CASP1 (211367_s_at) fold change vs control: 2.7 fold
  CCL2 (216598_s_at) fold change vs control: 150.9 fold
  CCL3 (205114_s_at) fold change vs control: 3.8 fold
  CCL5 (1405_i_at) fold change vs control: 2.8 fold
  CCL8 (214038_at) fold change vs control: 8.8 fold
  CCL18 (209924_at) fold change vs control: 2.0 fold
  CCL19 (210072_at) fold change vs control: 3.0 fold
  CCNB2 (202705_at) fold change vs control: 2.9 fold
  CD3D (213539_at) fold change vs control: 1.9 fold
  CD8A (205758_at) fold change vs control: 2.3 fold
  CD14 (201743_at) fold change vs control: 2.0 fold
  CD74 (209619_at) fold change vs control: 2.8 fold
  CLU (208791_at) fold change vs control: 2.2 fold
  CMAH (210571_s_at) fold change vs control: 2.0 fold
  CTSC (201487_at) fold change vs control: 2.1 fold
  CTSK (202450_s_at) fold change vs control: 1.5 fold
  CTSS (202902_s_at) fold change vs control: 1.6 fold
  CX3CR1 (205898_at) fold change vs control: 3.6 fold
  CXCL9 (203915_at) fold change vs control: 9.3 fold
  CXCL10 (204533_at) fold change vs control: 19.8 fold
  CXCL11 (210163_at) fold change vs control: 9.7 fold
  CXCL11 (211122_s_at) fold change vs control: 6.6 fold
  CXCL12 (209687_at) fold change vs control: 1.6 fold
  CYBA (203028_s_at) fold change vs control: 1.8 fold
  CYBB (203923_s_at) fold change vs control: 1.6 fold
  CYP1B1 (202436_s_at) fold change vs control: 2.6 fold
  CYP3A5 (214234_s_at) fold change vs control: 3.9 fold
  CYP11B1 (214630_at) fold change vs control: 2.5 fold
  DUSP6 (208893_s_at) fold change vs control: 3.0 fold
  ECGF1 (204858_s_at) fold change vs control: 3.3 fold
  ECM1 (209365_s_at) fold change vs control: 2.0 fold
  F2RL1 (206429_at) fold change vs control: 2.0 fold
  F13A1 (203305_at) fold change vs control: 1.8 fold
  FCGR1A (214511_x_at) fold change vs control: 2.0 fold
  FCGR3A (204006_s_at) fold change vs control: 2.5 fold
  G1P2 (205483_s_at) fold change vs control: 4.5 fold
  GZMB (210164_at) fold change vs control: 3.2 fold
  HCA127 (220040_x_at) fold change vs control: 2.0 fold
  HCK (208018_s_at) fold change vs control: 1.8 fold
  HFE (210864_x_at) fold change vs control: 1.8 fold
